In patent publication US5156956A, “Transgultaminase” (Ajinomoto Co., Inc., priority 1987, dated 1992):

Key:
[1] = target: T1, BTG-3 (Streptomyces cinnamoneus, UniProt Q8GR90); assay: Influence of metal ions on activity; type: biochemical; conditions: metal ion 1 mM; None = 100; 30 min
T1 construct: Ca2+-independent; made as pre-pro-protein
T1 sequence (Q8GR90 86-416): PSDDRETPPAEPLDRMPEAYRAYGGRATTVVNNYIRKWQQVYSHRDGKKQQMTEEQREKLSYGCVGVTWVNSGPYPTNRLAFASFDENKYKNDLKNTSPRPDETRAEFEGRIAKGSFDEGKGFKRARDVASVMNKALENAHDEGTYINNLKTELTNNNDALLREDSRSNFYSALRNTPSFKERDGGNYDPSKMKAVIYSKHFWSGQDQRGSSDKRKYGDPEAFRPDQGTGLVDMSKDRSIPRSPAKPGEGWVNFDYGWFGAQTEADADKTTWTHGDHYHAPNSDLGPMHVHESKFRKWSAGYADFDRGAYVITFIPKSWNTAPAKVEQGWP
Protocol: (§1) Measurement of the activity of BTGase is carried out by performing a reaction using benzyloxycarbonyl-L-glutaminyl glycine and hydroxylamine as substrates in the absence of Ca^2+, forming an iron complex with the resulting hydroxamic acid in the presence of trichloroacetic acid, measuring absorption at 525 nm and determining the amount of hydroxamic acid by a calibration curve to calculate the activity. The BTGase activity is measured by the method described below, unless otherwise indicated.
(§2) To 0.05 ml of an enzyme solution is added 0.5 ml of Reagent A and they are mixed with each other. After reacting at 37° C. for 30 minutes, Reagent B is added thereto to discontinue the reaction and form an Fe complex. Thereafter, absorbance is measured at 525 nm. […] Separately, a calibration curve is prepared using L-glutamic acid γ-monohydroxamio acid instead of the enzyme solution, and the amount of hydroxamic acid produced is determined by the difference in absorbance described above. An enzyme activity which produces 1 μmol of hydroxamic acid per 1 minute is defined as 1 unit.

[2] = target: T2, BTG-2 (Streptomyces griseocarneus, UniProt A0ABX7RSJ1); type: biochemical, Streptoverticillium griseocarneum IFO 12776; conditions: metal ion 1 mM; None = 100; 30 min
T2 construct: Ca2+-independent; made as pre-pro-protein
Protocol: as §1, §2

[3] = test system: all BTGases; assay: Influence of metal ions, statement on all BTGases; type: biochemical, Streptoverticillium; conditions: metal ion 1 mM
From the text: In all BTGases, the activity is inhibited by Cu^2+ and Zn^2+.

[4] = target: T3, BTG-1 (Streptomyces mobaraensis, UniProt P81453); assay: Influence of metal ions on activity; type: biochemical, Streptoverticillium mobaraense IFO 13819; conditions: metal ion 1 mM; None = 100; 30 min
T3 construct: BTGase is dissolved in the culture solution and can be harvested from the culture filtrate; endogenous in cells; host or cells: Streptoverticillium mobaraense IFO 13819 (natural producer; purified from culture filtrate)
T3 sequence (P81453 77-407): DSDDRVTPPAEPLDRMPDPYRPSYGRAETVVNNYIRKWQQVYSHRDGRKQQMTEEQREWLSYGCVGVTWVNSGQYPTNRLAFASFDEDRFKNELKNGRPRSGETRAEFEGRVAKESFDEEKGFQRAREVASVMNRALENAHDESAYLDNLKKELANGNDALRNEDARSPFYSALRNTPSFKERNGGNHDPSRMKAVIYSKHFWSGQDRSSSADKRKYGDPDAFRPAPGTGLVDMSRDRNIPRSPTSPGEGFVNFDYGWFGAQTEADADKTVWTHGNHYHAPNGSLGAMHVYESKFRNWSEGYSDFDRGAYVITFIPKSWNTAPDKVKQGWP
Protocol: as §1, §2

[5] = target: T3, BTG-1; assay: biochemical; design: species or system Streptoverticillium mobaraense IFO 13819; conditions: inhibitor 1 mM, 25° C. for 30 minutes, None = 100
Protocol: as §1, §2

[6] = target: T1, BTG-3; assay: biochemical; conditions: inhibitor 1 mM, 25° C. for 30 minutes, None = 100
Protocol: as §1, §2

[7] = test system: all BTGases; conditions: inhibitor 1 mM, 25° C. for 30 minutes
[8] = target: T2, BTG-2; assay: biochemical; design: species or system Streptoverticillium griseocarneum IFO 12776
Protocol: as §1, §2

[9] = Temperature stability; type: physicochemical; conditions: pH 7 for 10 minutes
[10] = Activity of the enzymes without added Ca2+; type: biochemical; conditions: no CaCl2 added (Table 5)
Protocol: as §1

[11] = Optimum pH; type: biochemical; conditions: 37° C. for 10 minutes
[12] = pH stability; type: physicochemical; conditions: treatment at 37° C. for 10 minutes

[Cl][Cu][Cl] [CuCl2]
BTG-3 (%) activity with metal ion [1]: 86% | BTG-2 (%) activity with metal ion [2]: 82% | Effect of metal ion on activity of all BTGases (in words) [3]: inhibited | BTG-1 (%) activity with metal ion [4]: 79%

CCN1C(=O)C=CC1=O [NEM, N-ethylmaleimide]
inhibition at 1000 µM ([5]; read-out: BTG-1 (%) activity with inhibitor): 5% | inhibition at 1000 µM ([6]; read-out: BTG-3 (%) activity with inhibitor): 3% | Effect of inhibitor on activity of all BTGases (in words) [7]: inhibited | inhibition at 1000 µM ([8]; read-out: BTG-2 (%) activity with inhibitor): 5%

O=C(O)c1cc[c]([Hg][Cl])cc1 [PCMB, p-chloromercury benzoic acid]
BTG-1 (%) activity with inhibitor [5]: 54% | BTG-3 (%) activity with inhibitor [6]: 63% | Effect of inhibitor on activity of all BTGases (in words) [7]: inhibited | BTG-2 (%) activity with inhibitor ([8]; inhibitor 1 mM, 25° C. for 30 minutes, None = 100): 61%

[Cl-].[Cl-].[Zn+2] [ZnCl2]
BTG-3 (%) activity with metal ion [1]: 24% | BTG-2 (%) activity with metal ion [2]: 24% | Effect of metal ion on activity of all BTGases (in words) [3]: inhibited | BTG-1 (%) activity with metal ion [4]: 15%

B1: BTG-1: transglutaminase of Streptoverticillium mobaraense IFO 13819 (protein, UniProt P81453 77-407, looked up)
Protein-glutamine …: T3 sequence (P81453 77-407)
Temperature stability (%), 40° C. residual rate ([9]; 40° C.): 88% | Temperature stability (%), 50° C. residual rate ([9]; 50° C.): 74% | Activity (%) of the enzyme, metal ion: None [10]: 99% | Optimum pH [11]: 6-7 | pH Stability (stable pH range) [12]: 5-9
